Molecular target: T1, human PAR-2 (hPAR-2) receptor (Homo sapiens, UniProt P55085)
T1 construct: expressed in HEK-293 cells in an endogenous manner; endogenous in cells; host or cells: HEK-293
T1 sequence (P55085 26-397): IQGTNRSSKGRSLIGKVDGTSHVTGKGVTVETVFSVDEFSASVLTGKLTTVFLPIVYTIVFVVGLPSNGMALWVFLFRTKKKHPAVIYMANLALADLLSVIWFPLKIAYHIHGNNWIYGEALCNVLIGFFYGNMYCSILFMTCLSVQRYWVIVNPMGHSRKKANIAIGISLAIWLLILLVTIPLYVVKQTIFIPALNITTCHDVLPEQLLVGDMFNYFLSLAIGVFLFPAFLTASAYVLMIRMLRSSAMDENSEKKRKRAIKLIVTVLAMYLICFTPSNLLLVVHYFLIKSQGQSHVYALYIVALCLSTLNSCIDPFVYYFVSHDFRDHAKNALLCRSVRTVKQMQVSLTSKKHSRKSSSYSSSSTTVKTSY
Experiment: In vitro human PAR-2 functional antagonist activity using calcium assays
Assay type: cell-based
Details: hPAR-2 endogenously expressed in HEK-293 cells; stimulated by 2-Furoyl-LIGRLO-NH2 peptide; Fluo4AM intracellular calcium, FLIPR Tetra
Procedure: Example 283: In Vitro Human PAR-2 Functional Antagonist Activity Using Calcium Assays
Examples of the present invention were tested successively for their agonist and antagonist activities on human PAR-2 (hPAR-2) receptor expressed in HEK-293 cells in an endogenous manner. Compounds exert agonist activity if, by themselves in absence of the 2-Furoyl-LIGRLO-NH2 peptide (selective hPAR-2 agonist), they activate PAR-2; they exert antagonist activity if they decrease the action of the 2-Furoyl-LIGRLO-NH2 peptide on the receptor. The assay used to determine compound activity is based on calcium measurement.
Cell Culture: HEK-293 cells were maintained in Dulbecco's Modified Eagle's Medium supplemented with 10% Foetal Calf Serum, 1% Penicillin/Streptomycin at 37° C./5% CO2. Flasks for tests (F75) are seeded with 6e+06 cells 24 h before the experiment at 37° C./5% CO2.
Calcium assay: Receptor activity was detected by changes in intracellular calcium measured using the fluorescent Ca^2+ sensitive dye, Fluo4AM (Molecular Probes).
The day of the assay, medium was replaced by assay buffer (HBSS 1× (Gibco 14175-053), Hepes 20 mM, MgSO4-7H2O 1 mM, Na2CO3 3.3 mM, CaCl2—2H2O 2.6 mM, 0.5% bovine serum albumin (BSA), Probenecid 2.5 mM, 0.1 mg/mL Pluronic Acid) and complemented with 1 μM Fluo4AM and cells were incubated during 1:30 h at 37° C.
Cells were then detached, resuspended in assay buffer and seeded in 384 wells, transparent-flat bottom black walled plates (2e+04 cells per well). Plates were incubated at +22° C. for 20 min. Compounds stock solutions were prepared in 100% DMSO and dilutions in test buffer were carried out in polypropylene plates with a digital dispenser (D300e, Tecan). Compounds were added to the cells and intracellular Ca^2+ measurements were collected at the same time on FLIPR Tetra® (Molecular Devices) with specific filters (Exc: 470-495 nm/Em: 515-575 nm).
Agonist and antagonist activities of compounds were consecutively evaluated on the same cell plate. Agonist activity was first measured after 10 min incubation with the compound alone. Then, cells were stimulated by an […] of the 2-Furoyl-LIGRLO-NH2 peptide and fluorescence was recorded for an additional 5 min. EC50 of the 2-Furoyl-LIGRLO-NH2 peptide was the concentration giving 80% of the maximal 2-Furoyl-LIGRLO-NH2 response. Agonist activities are evaluated in comparison to basal signals evoked by assay buffer or maximal 2-Furoyl-LIGRLO-NH2 response. […] Antagonist activities are evaluated in comparison to basal signals evoked by assay buffer or EC50 of 2-Furoyl-LIGRLO-NH2 alone.

| SMILES | IC50 [nM] |
| --- | --- |
| CC1(C)CN(c2ccc(Cl)c(F)c2)c2ccc(C(=O)N3[C@@H]4CC[C@H]3CC(CC(=O)O)C4)nc21 (mixture of isomers) [Example 130, 2-((1R,5S)-8-(1-(4-chloro-3-fluorophenyl)-3,3-dimethyl-2,3-dihydro-1H-pyrrolo[3,2-b]pyridine-5-carbonyl)-8-azabicyclo[3.2.1]octan-3-yl)acetic acid] | 500 to 10000 |
| CC1(C)C(=O)NCCN1C(=O)c1ccc2c(n1)[C@]1(C)CCO[C@@H]1N2c1ccc(Cl)c(F)c1 (racemic) [Example 61, cis-4-(8-(4-chloro-3-fluorophenyl)-3a-methyl-3,3a,8,8a-tetrahydro-2H-furo[3′,2′:4,5]pyrrolo[3,2-b]pyridine-5-carbonyl)-3,3-dimethylpiperazin-2-one] | < 500 |
| CC1(C)CN(c2ccc(Cl)c(F)c2)c2ccc(C(=O)N3CC[C@H](c4ccccn4)[C@H](C(=O)O)C3)nc21 (relative stereo) [Example 137, (cis)-1-(1-(4-chloro-3-fluorophenyl)-3,3-dimethyl-2,3-dihydro-1H-pyrrolo[3,2-b]pyridine-5-carbonyl)-4-(pyridin-2-yl)piperidine-3-carboxylic acid] | 500 to 10000 |
| CC1(C)CN(c2ccc(Cl)c(F)c2)c2ccc(C(=O)N3CC[C@@H](c4ccccn4)[C@H](C(=O)O)C3)nc21 (relative stereo) [Example 138, (trans)-1-(1-(4-chloro-3-fluorophenyl)-3,3-dimethyl-2,3-dihydro-1H-pyrrolo[3,2-b]pyridine-5-carbonyl)-4-(pyridin-2-yl)piperidine-3-carboxylic acid] | 500 to 10000 |
| CC1(C)C(=O)NCCN1C(=O)c1ccc2c(n1)[C@@]1(C)CCO[C@H]1N2c1ccc(Cl)c(F)c1 (single isomer, unassigned) [Example 62] | < 500 |
| CC1(C)C(=O)NCCN1C(=O)c1ccc2c(n1)[C@]1(C)CCO[C@@H]1N2c1ccc(Cl)c(F)c1 (single isomer, unassigned) [Example 63] | 500 to 10000 |
| Cc1cc(N2CCN(C(=O)c3ccc4c(n3)C3(CC(C)C3)CN4c3ccc(Cl)c(F)c3)C(C)(C)C2)nc(C)c1C(=O)O (single isomer, unassigned) [Example 156, 6-(4-(1′-(4-chloro-3-fluorophenyl)-3-methyl-1′,2′-dihydrospiro[cyclobutane-1,3′-pyrrolo[3,2-b]pyridine]-5′-carbonyl)-3,3-dimethylpiperazin-1-yl)-2,4-dimethylnicotinic acid] | < 500 |
| COC1CC2(C1)CN(c1ccc(Cl)c(F)c1)c1ccc(C(=O)N3CCN(c4cc(C)c(C(=O)O)c(C)n4)CC3(C)C)nc12 (single isomer, unassigned) [Example 199, 6-(4-(1′-(4-chloro-3-fluorophenyl)-3-methoxy-1′,2′-dihydrospiro[cyclobutane-1,3′-pyrrolo[3,2-b]pyridine]-5′-carbonyl)-3,3-dimethylpiperazin-1-yl)-2,4-dimethylnicotinic acid] | < 500 |
| CC1(C)C(=O)NCCN1C(=O)c1ccc2c(n1)C1(CCOCC1)C(=O)N2c1ccc(Cl)c(F)c1 [Example 1, 1′-(4-chloro-3-fluorophenyl)-5′-(2,2-dimethyl-3-oxopiperazine-1-carbonyl)-2,3,5,6-tetrahydrospiro[pyran-4,3′-pyrrolo[3,2-b]pyridin]-2′(1′H)-one] | 500 to 10000 |
| CC1(C)C(=O)NCCN1C(=O)c1ccc2c(n1)C1(CCCC1)C(=O)N2c1ccc(Cl)c(F)c1 [Example 2, 1′-(4-chloro-3-fluorophenyl)-5′-(2,2-dimethyl-3-oxopiperazine-1-carbonyl)spiro[cyclopentane-1,3′-pyrrolo[3,2-b]pyridin]-2′(1′H)-one] | 500 to 10000 |
| CC1(C)C(=O)NCCN1C(=O)c1ccc2c(n1)C1(CCCC1)CN2c1ccc(Cl)c(F)c1 [Example 3, 4-(1′-(4-chloro-3-fluorophenyl)-1′,2′-dihydrospiro[cyclopentane-1,3′-pyrrolo[3,2-b]pyridine]-5′-carbonyl)-3,3-dimethylpiperazin-2-one] | < 500 |
| O=C1NC(=O)C2(CCN(C(=O)c3ccc4c(n3)C3(CCCC3)CN4c3ccc(Cl)c(F)c3)CC2)N1 [Example 4, 8-(1′-(4-chloro-3-fluorophenyl)-1′,2′-dihydrospiro[cyclopentane-1,3′-pyrrolo[3,2-b]pyridine]-5′-carbonyl)-1,3,8-triazaspiro[4.5]decane-2,4-dione] | < 500 |
| CC1(C)CN(C(=O)c2ccc3c(n2)C2(CCCC2)CN3c2ccc(Cl)c(F)c2)CCC1C(=O)O (stereo not shown) [Example 6, 1-(1′-(4-chloro-3-fluorophenyl)-1′,2′-dihydrospiro[cyclopentane-1,3′-pyrrolo[3,2-b]pyridine]-5′-carbonyl)-3,3-dimethylpiperidine-4-carboxylic acid] | 500 to 10000 |
| Cc1cc(N2CCN(C(=O)c3ccc4c(n3)C3(CCCC3)CN4c3ccc(Cl)c(F)c3)C(C)(C)C2)nc(C)c1C(=O)O [Example 8, 6-(4-(1′-(4-chloro-3-fluorophenyl)-1′,2′-dihydrospiro[cyclopentane-1,3′-pyrrolo[3,2-b]pyridine]-5′-carbonyl)-3,3-dimethylpiperazin-1-yl)-2,4-dimethylnicotinic acid] | < 500 |
| CC1(C)C(=O)NCCN1C(=O)c1ccc2c(n1)C1(CCCC1)CN2c1cccc(Cl)c1 [Example 9, 4-(1′-(3-chlorophenyl)-1′,2′-dihydrospiro[cyclopentane-1,3′-pyrrolo[3,2-b]pyridine]-5′-carbonyl)-3,3-dimethylpiperazin-2-one] | < 500 |
| CC1(C)C(=O)NCCN1C(=O)c1ccc2c(n1)C1(CCCC1)CN2c1ccccc1Cl [Example 10, 4-(1′-(2-chlorophenyl)-1′,2′-dihydrospiro[cyclopentane-1,3′-pyrrolo[3,2-b]pyridine]-5′-carbonyl)-3,3-dimethylpiperazin-2-one] | 500 to 10000 |
| CC1(C)CN(c2ccsc2)c2ccc(C(=O)N3CCNC(=O)C3(C)C)nc21 [Example 11, 4-(3,3-dimethyl-1-(thiophen-3-yl)-2,3-dihydro-1H-pyrrolo[3,2-b]pyridine-5-carbonyl)-3,3-dimethylpiperazin-2-one] | 500 to 10000 |
| CC1(C)CN(c2ccc(F)c(F)c2)c2ccc(C(=O)N3CCNC(=O)C3(C)C)nc21 [Example 12, 4-(1-(3,4-difluorophenyl)-3,3-dimethyl-2,3-dihydro-1H-pyrrolo[3,2-b]pyridine-5-carbonyl)-3,3-dimethylpiperazin-2-one] | < 500 |
| Cc1cc(N2CCN(C(=O)c3ccc4c(n3)C(C)(C)CN4c3ccc(F)c(F)c3)C(C)(C)C2)nc(C)c1C(=O)O [Example 14, 6-(4-(1-(3,4-difluorophenyl)-3,3-dimethyl-2,3-dihydro-1H-pyrrolo[3,2-b]pyridine-5-carbonyl)-3,3-dimethylpiperazin-1-yl)-2,4-dimethylnicotinic acid] | < 500 |
| CC1(C)CN(c2ccc(F)cc2)c2ccc(C(=O)N3CCNC(=O)C3(C)C)nc21 [Example 15, 4-(1-(4-fluorophenyl)-3,3-dimethyl-2,3-dihydro-1H-pyrrolo[3,2-b]pyridine-5-carbonyl)-3,3-dimethylpiperazin-2-one] | < 500 |
| Cc1cc(N2CCN(C(=O)c3ccc4c(n3)C(C)(C)CN4c3cccc(F)c3)C(C)(C)C2)nc(C)c1C(=O)O [Example 17, 6-(4-(1-(3-fluorophenyl)-3,3-dimethyl-2,3-dihydro-1H-pyrrolo[3,2-b]pyridine-5-carbonyl)-3,3-dimethylpiperazin-1-yl)-2,4-dimethylnicotinic acid] | < 500 |
| CC1(C)CN(c2ccc(Cl)c(F)c2)c2ccc(C(=O)N3CCNC(=O)C3(C)C)nc21 [Example 18, 4-(1-(4-chloro-3-fluorophenyl)-3,3-dimethyl-2,3-dihydro-1H-pyrrolo[3,2-b]pyridine-5-carbonyl)-3,3-dimethylpiperazin-2-one] | < 500 |
